{"source": "patent US20100210558A1", "about": "“MINIGASTRIN AS A THERAPEUTIC AGENT” (priority 2007, published 2010)", "key": {"HCMV strain AD169": {"tested_on": "HCMV strain AD169", "experiment": "HCMV plaque reduction assay", "format": "cell-based", "settings": "HCMV AD169 in MRC-5 cells; peptide 10 micrograms per ml; 7-10 days", "excerpt": "(§1) Cells were split twice a week 1:2.\nGanciclovir was used as positive control."}, "[1]": {"experiment": "Cytotoxicity in HCMV assay (CellTiter 96 cell viability)", "format": "cell-based", "settings": "human, MRC-5 cells (embryonal lung fibroblasts), 6 days incubation", "excerpt": "as §1"}, "MRSA": {"tested_on": "MRSA", "experiment": "Methicillin Resistant Staphylococcus Aureus (MRSA) assay", "format": "cell-based", "settings": "peptide 10 micrograms per ml, visual reading of growth"}, "Pseudomonas aeruginosa": {"tested_on": "Pseudomonas aeruginosa", "experiment": "Pseudomonas aeruginosa assay", "format": "cell-based", "settings": "peptide 10 micrograms per ml, visual reading of growth"}, "Streptococcus pneumoniae": {"tested_on": "Streptococcus pneumoniae", "experiment": "Streptococcus pneumoniae assay", "format": "cell-based", "settings": "peptide 10 micrograms per ml, visual reading of growth"}, "A549 cells": {"tested_on": "A549 cells", "experiment": "Propidium iodide cell cycle assay", "format": "cell-based, human", "settings": "peptide 10 micrograms per ml, 24 hours, FACS"}, "[2]": {"tested_on": "Human Peripheral Blood Mononuclear Cells (PBMC)", "experiment": "T cell proliferation assay (PHA, 3H-thymidine)", "format": "cell-based", "settings": "peptide 10 micrograms per ml, 3 days"}, "[3]": {"tested_on": "Human Peripheral Blood Mononuclear Cells (PBMC)", "experiment": "B cell proliferation assay (SAC plus Interleukin-2, 3H-thymidine)", "format": "cell-based", "settings": "peptide 10 micrograms per ml, 3 days"}, "RAW 264.7 cells": {"tested_on": "RAW 264.7 cells", "experiment": "Phagocytosis assay (Fluorescein-labeled Escherichia coli)", "format": "cell-based, mouse", "settings": "peptide 10 micrograms per ml, Fluorescein-labeled E. coli, flow cytometry"}, "[4]": {"tested_on": "spleen cells (IL-2, IL-4, IL-5, IFN-γ, TNF-α protein levels)", "experiment": "Th1/Th2 cytokine profiling assay", "format": "cell-based, Balb/c mice", "settings": "Ovalbumin-restimulated Balb/c spleen cells; peptide 10 micrograms per ml; 72 hours"}, "TNF alpha production": {"tested_on": "TNF alpha production", "experiment": "TNF alpha production assay (LPS-stimulated macrophages, ELISA)", "format": "cell-based", "settings": "human macrophages, peptide 10 micrograms per ml, lipopolysaccharide 200 ng/ml, overnight"}, "[5]": {"tested_on": "Primary Human endothelial cells (HUVEC)", "experiment": "Endothelial cell migration assay", "format": "cell-based", "settings": "peptide 10 micrograms per ml, 22 hours"}, "HUVEC": {"tested_on": "HUVEC", "experiment": "Endothelial tube formation assay", "format": "cell-based, human", "settings": "peptide 10 micrograms per ml, 20 hours", "excerpt": "Positive control was vehicle only."}, "in vitro": {"experiment": "in vitro", "settings": "human"}, "[6]": {"experiment": "Cytotoxicity in HIV-1 assay (MTS cell viability)", "settings": "human"}, "[7]": {"tested_on": "hepatitis B virus (HBV) ayw strain", "experiment": "HBV replication assay (secreted HBV DNA, TaqMan PCR)", "settings": "HepG2-2.2.15 cells; peptide 10 micrograms per ml; six days; HBV DNA in supernatant"}}, "note": "Where no end group is shown, it is not given here."}
{"substance": "LEEEEEAYGWMDF-NH2 [Minigastrin I]", "values": [{"measurement": "% plaque reduction", "setting": "HCMV strain AD169", "value": 1.4, "unit": "%"}, {"measurement": "viability at 144 h", "setting": "[1]", "value": 100, "unit": "%"}, {"measurement": "% inhibition", "setting": "MRSA", "value": 0.0, "unit": "%"}, {"measurement": "% inhibition", "setting": "Pseudomonas aeruginosa", "value": 0.0, "unit": "%"}, {"measurement": "% inhibition", "setting": "Streptococcus pneumoniae", "value": 0.0, "unit": "%"}, {"measurement": "Cell cycle analysis G0/G1", "setting": "A549 cells", "value": 57.1}, {"measurement": "Cell cycle analysis G2/M", "setting": "A549 cells", "value": 10.3}, {"measurement": "Cell cycle analysis S", "setting": "A549 cells", "value": 32.6}, {"measurement": "% of PHA induced control", "setting": "[2]", "value": 101.1, "unit": "%"}, {"measurement": "% of SAC/IL2 induced control", "setting": "[3]", "value": 78.4, "unit": "%"}, {"measurement": "% of control phagocytosis", "setting": "RAW 264.7 cells", "value": 145.7, "unit": "%"}, {"measurement": "IFNγ spleen cells; TH1 response (% of control)", "setting": "[4]", "value": "79.5 % of control"}, {"measurement": "IL-2 spleen cells (% of control)", "setting": "[4]", "value": "149.2 % of control"}, {"measurement": "IL-4 spleen cells; TH2 response (% of control)", "setting": "[4]", "value": "106.6 % of control"}, {"measurement": "IL-5 spleen cells; TH2 response (% of control)", "setting": "[4]", "value": "66.5 % of control"}, {"measurement": "TNF-a spleen cells; TH1 response (% of control)", "setting": "[4]", "value": "99.0 % of control"}, {"measurement": "% of LPS induction", "setting": "TNF alpha production", "value": 79.0, "unit": "%"}, {"measurement": "% inhibition of migration", "setting": "[5]", "value": "−3", "unit": "%"}, {"measurement": "% inhibition of tube formation", "setting": "HUVEC", "value": 36, "unit": "%"}, {"measurement": "viability at 144 h, 10 micrograms per ml", "setting": "in vitro", "value": 9.5, "unit": "%"}, {"measurement": "viability at 10 micrograms per ml", "setting": "[6]", "value": 100, "unit": "%"}, {"measurement": "% inhibition of HBV replication in HEP G2 cells", "setting": "[7]", "value": 49.9, "unit": "%"}]}
